Results from patent publication US11452718B2 (AVALYN PHARMA INC., priority 2012, dated 2022).
Entries after “also recorded” stand apart in the source; their conditions may differ. Read-outs that look alike come from different tables or passages of the source. Marks after values point to notes of the source that are not given here.

Tests used:
[1] = Co-solvent and surfactant effects on pirfenidone solubility; assay type: physicochemical
Experimental: Each sample was agitated at ambient temperature overnight. The samples were visually inspected and appearance recorded. Samples were centrifuged to sediment any un-dissolved material and the supernatant withdrawn via syringe through a 0.22 μm PVDF filter. […] The remaining filtered sample was split into three equal volumes in glass vials and placed at 25° C./60RH, 40° C./75RH and refrigeration. Samples are wrapped in aluminum foil to reduce light exposure. After the first night of incubation, samples are briefly visually inspected for any signs of discoloration or precipitate formation.

[2] = Rubino et al., cited from earlier work
[3] = system: proliferation of fibroblasts; LPS-stimulated release of PDGF, TNF-alpha and TGF-beta1; collagen synthesis; settings: depending on the assay conditions; cited from earlier work
[4] = biological target: T1, CYP1A2 (Homo sapiens, UniProt P05177); settings: hepatic microsomes; cited from earlier work
T1 construct: In vitro metabolism studies with hepatic microsomes; from tissue; host or cells: hepatic microsomes

[5] = Osmolality determination and nebulization for taste testing, throat irritation and cough response of selected formulations; settings: for Cough Response? / Throat Irritation?: nebulized
Text: Selected formulations were subjected to osmolality determination and nebulization for taste testing and throat irritation and or cough response.

[6] = Buffer and pH effects: pirfenidone solubility in citrate and phosphate buffers; assay type: physicochemical; settings: Citrate buffer 5 mM, pH 6; ambient temperature overnight
Experimental: The sample was agitated at ambient temperature overnight. The sample was visually inspected, appearance recorded, centrifuged to sediment any un-dissolved material, and the supernatant withdrawn via syringe through a 0.22 μm PVDF filter. […] The remaining filtered sample was split into three equal volumes in glass vials and placed at 25° C./60RH, 40° C./75RH and refrigeration. Samples were wrapped in aluminum foil to reduce light exposure. After the first night of incubation, samples were briefly visually inspected for any signs of discoloration or precipitate formation.

[7] = cited from earlier work
[8] = Process temperature development study (60° C. dissolution, cooling to 25° C.); assay type: physicochemical; settings: for Pirfenidone (mg/mL) >Re-crystal: after stepwise cooling to 25° C. and later re-crystallization
Experimental: Formulations were prepared as described in Table 11. […] The final volume of each formulation was 5 mL. […] Each sample was mixed thoroughly and agitated overnight at 60° C. Rapid cooling and step-wise cooling from 60° C. to 25° C. was performed. HPLC analysis was performed on samples taken after overnight incubation and after cooling to 25° C. Prior to HPLC analysis, formulations were filtered via syringe through a 0.45 μm PVDF filter.

[9] = Pharmacokinetics and lung-tissue distribution after oral gavage or intratracheal aerosol; assay type: in vivo, Sprague-Dawley rats; settings: for Lung AUC: for time >1 μg/g
Experimental: Solutions were vortexed until all crystals dissolved. […] Plasma samples were taken at pre-dose, 0.08, 0.16, 0.25, 0.5, 0.75, 1.0, 1.5, 2, 4, and 6 hours post dosing. For lung tissue samples, eight additional rats were also dosed 70 mg/kg by the oral route. Lungs were taken at pre-dose 0.08, 0.5, 2, and 4 hours post dosing. Materials were extracted and pirfenidone quantitated as μg/mL plasma and μg/gram lung tissue. […]

[10] = 85% saturation pirfenidone formulations exposed to several temperatures (re-crystallization); assay type: physicochemical; settings: overnight
Text: However, in all cases pirfenidone eventually re-crystallized. This re-crystallization was not inhibited by pre-filtration of the sample.

[11] = Rubino et al., cited from earlier work; remark: listed apart in the source
[12] = lung tissue (derived solely from plasma T1/2), oral 801 mg, fasted-state, 2009
[13] = lung tissue (derived solely from plasma T1/2), oral 801 mg, fed-state, 2009
[14] = plasma, oral 801 mg, fasted-state, 2009
[15] = plasma, oral 801 mg, fed-state, 2009
[16] = pirfenidone 27.2 mg/mL, 4% EtOH, 8% PG, 88% phosphate buffer (5 mM), pH 6.6
[17] = pirfenidone 34.7 mg/mL, 6% EtOH, 12% PG, 82% phosphate buffer (5 mM), pH 7.0
[18] = pirfenidone 43.7 mg/mL, 8% EtOH, 16% PG, 0 mM sodium saccharin, 76% phosphate buffer (5 mM), pH 7.0
[19] = pirfenidone 43.7 mg/mL, 8% EtOH, 16% PG, 0.3 mM sodium saccharin, 76% phosphate buffer (5 mM), pH 7.0
[20] = EtOH 0, PG 8, PS80 0 % v/v, 92% phosphate buffer (5 mM), pH 6.6
[21] = EtOH 0, PG 8, PS80 0.04 % v/v, 92% phosphate buffer (5 mM), pH 6.7
[22] = EtOH 4, PG 0, PS80 0.04 % v/v, 96% phosphate buffer (5 mM), pH 6.6
[23] = EtOH 4, PG 8, PS80 0 % v/v, 88% phosphate buffer (5 mM), pH 6.7
[24] = EtOH 4, PG 8, PS80 0.04 % v/v, 88% phosphate buffer (5 mM), pH 6.7
[25] = bolus aerosol intratracheal 1 mg/kg
[26] = bolus aerosol intratracheal 5 mg/kg

T1 sequence (P05177 whole entry): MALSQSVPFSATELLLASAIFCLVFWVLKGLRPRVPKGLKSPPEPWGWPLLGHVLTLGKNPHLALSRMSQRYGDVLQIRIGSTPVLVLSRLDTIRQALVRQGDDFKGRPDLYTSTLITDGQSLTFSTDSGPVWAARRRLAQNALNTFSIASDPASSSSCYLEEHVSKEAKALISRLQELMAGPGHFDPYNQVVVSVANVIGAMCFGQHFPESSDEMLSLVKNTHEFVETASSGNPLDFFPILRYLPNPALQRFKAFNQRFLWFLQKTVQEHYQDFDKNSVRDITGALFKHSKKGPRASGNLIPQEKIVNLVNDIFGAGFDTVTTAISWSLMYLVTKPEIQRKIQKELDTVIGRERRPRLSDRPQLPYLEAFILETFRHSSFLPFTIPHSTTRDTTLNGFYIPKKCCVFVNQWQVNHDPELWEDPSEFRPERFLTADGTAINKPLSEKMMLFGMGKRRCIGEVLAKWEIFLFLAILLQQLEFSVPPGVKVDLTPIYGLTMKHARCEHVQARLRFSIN

Cc1ccc(=O)n(-c2ccccc2)c1 [pirfenidone, 5-methyl-1-phenyl-2-(1H)-pyridone]
Pirfenidone Saturation Solubility ([1]; 4% EtOH, 0.1% CPB, 95.9% water, pH 4.9): 20.2 mg/mL | effect of co-solvent on saturation solubility ([1]; ethanol (EtOH) or propylene glycol (PG)): increase the saturation solubility | effect of co-solvents on saturation solubility ([1]; ethanol and propylene glycol together): additive effect in increasing the saturation solubility | T1/2 beta ([2]; lung tissue (derived solely from plasma T1/2), aerosol 47 mg RDD, 2009 fasted-state): 2.5 h | T1/2 beta [2, 12]: 2.5 h | T1/2 beta [2, 13]: 2.4 h | T1/2 beta ([2]; plasma, aerosol 47 mg RDD, 2009 fasted-state): 2.5 h | T1/2 beta [2, 14]: 2.5 h | T1/2 beta [2, 15]: 2.4 h | lower end of concentrations at which in vitro activities were evident [3]: about 30 microM; also recorded: about 5.5 mcg/mL | upper end of concentrations at which in vitro activities were evident [3]: about 10 mM; also recorded: about 1.85 mg/mL | share of pirfenidone metabolised via the enzyme [4]: approximately 48% | Cough Response? [5, 16]: No | Throat Irritation? [5, 16]: No | Cough Response? [5, 17]: No | Throat Irritation? [5, 17]: No | Cough Response? [5, 18]: No | Throat Irritation? [5, 18]: No | Cough Response? [5, 19]: No | Throat Irritation? [5, 19]: No | Osmolality ([5]; pirfenidone 27.2 mg/mL, 4% EtOH, 8% PG, 88% phosphate buffer (5 mM), pH 6.6, calculated): ~1830* mOsmo/Kg | Osmolality ([5]; pirfenidone 34.7 mg/mL, 6% EtOH, 12% PG, 82% phosphate buffer (5 mM), pH 7.0, calculated): ~2750* mOsmo/Kg | Osmolality [5, 18]: 3672 mOsmo/Kg | Osmolality [5, 19]: 3672 mOsmo/Kg | Pirfenidone Saturation Solubility [6]: 18.4 mg/mL | Lung Cmax ([7]; 40 mg/kg intravenous dose): 30 mcg/gram wet tissue | plasma Cmax ([7]; 40 mg/kg intravenous dose): about 55 mcg/mL | wet lung half-life, longer than the plasma half-life ([7]; intravenous): about 45% | full dissolution on heating ([8]; 60° C.): ≥ 50 mg/mL | Observations: dissolution [8, 20]: Fully dissolved after overnight at 60 °C | Observations: stable at 25° C. before re-crystallization [8, 20]: Stable at 25 °C for >4 hours before re- | Pirfenidone (mg/mL) >60° C. [8, 20]: 54.6 mg/mL | Pirfenidone (mg/mL) >Re-crystal [8, 20]: 18.6 mg/mL | Observations: dissolution [8, 21]: Fully dissolved after overnight at 60 °C | Observations: stable at 25° C. before re-crystallization [8, 21]: Stable at 25 °C for >4 hours before re- | Pirfenidone (mg/mL) >60° C. [8, 21]: 52.8 mg/mL | Pirfenidone (mg/mL) >Re-crystal [8, 21]: 22.3 mg/mL | Observations: dissolution [8, 22]: Fully dissolved after overnight at 60 °C | Observations: stable at 25° C. before re-crystallization [8, 22]: Stable at 25 °C for >4 hours before re- | Pirfenidone (mg/mL) >60° C. [8, 22]: 50.7 mg/mL | Pirfenidone (mg/mL) >Re-crystal [8, 22]: 22.4 mg/mL | Observations: dissolution [8, 23]: Fully dissolved after overnight at 60 °C | Observations: stable at 25° C. before re-crystallization [8, 23]: Stable at 25 °C for >4 hours before re- | Pirfenidone (mg/mL) >60° C. [8, 23]: 50.34 mg/mL | Pirfenidone (mg/mL) >Re-crystal [8, 23]: 27.6 mg/mL | Observations: dissolution [8, 24]: Fully dissolved after overnight at 60 °C | Observations: stable at 25° C. before re-crystallization [8, 24]: Stable at 25 °C for >4 hours before re- | Pirfenidone (mg/mL) >60° C. [8, 24]: 51.8 mg/mL | Pirfenidone (mg/mL) >Re-crystal [8, 24]: 26.8 mg/mL | outcome of rapid cooling ([8]; rapid cooling to 25° C.): rapid recrystallization | concentration staying in solution for several hours ([8]; slow step-wise cooling from 60° C. to 25° C.): about 50 mg/mL | Lung TOE: time of exposure over 1 μg/g lung tissue [9, 25]: 5 min | Lung Cmax ([9]; bolus aerosol intratracheal 1 mg/kg, immediate post-dose calculated from the direct-lung delivered dose): 101 µg/g | Lung TOE: time of exposure over 1 μg/g lung tissue [9, 26]: 84 min | Lung Cmax ([9]; bolus aerosol intratracheal 5 mg/kg, immediate post-dose calculated from the direct-lung delivered dose): 508 µg/g | Lung AUC [9, 25]: 5.2 mg·h/kg | Lung AUC [9, 26]: 25.4 mg·h/kg | Lung AUC ([9]; oral 70 mg/kg): 4.3 mg·h/kg | Lung Cmax ([9]; oral 70 mg/kg): 3.6 µg/g | Lung TOE: time of exposure over 1 μg/g lung tissue ([9]; oral 70 mg/kg): 89 min | Recrystallization upon storage ([10]; 4° C., pirfenidone 23.0 mg/mL (85% saturation), 4% EtOH, 8% PG, 88% phosphate buffer (5 mM), pH 6.6): No | Recrystallization upon storage ([10]; 4° C., pirfenidone 29.5 mg/mL, 6% EtOH, 12% PG, 82% phosphate buffer (5 mM), pH 7.0): No | Recrystallization upon storage ([10]; 4° C., pirfenidone […], 8% EtOH, 16% PG, 76% phosphate buffer (5 mM), pH 7.0): No | Recrystallization upon storage ([10]; 15° C., pirfenidone 23.0 mg/mL (85% saturation), 4% EtOH, 8% PG, 88% phosphate buffer (5 mM), pH 6.6): No | Recrystallization upon storage ([10]; 15° C., pirfenidone 29.5 mg/mL, 6% EtOH, 12% PG, 82% phosphate buffer (5 mM), pH 7.0): No | Recrystallization upon storage ([10]; 15° C., pirfenidone […], 8% EtOH, 16% PG, 76% phosphate buffer (5 mM), pH 7.0): No | Recrystallization upon storage ([10]; 25° C., pirfenidone 23.0 mg/mL (85% saturation), 4% EtOH, 8% PG, 88% phosphate buffer (5 mM), pH 6.6): No | Recrystallization upon storage ([10]; 25° C., pirfenidone 27.2 mg/mL (saturation solubility), 4% EtOH, 8% PG, 88% phosphate buffer (5 mM), pH 6.6): Yes | Recrystallization upon storage ([10]; 25° C., pirfenidone 29.5 mg/mL, 6% EtOH, 12% PG, 82% phosphate buffer (5 mM), pH 7.0): No | Recrystallization upon storage ([10]; 25° C., pirfenidone 34.7 mg/mL, 6% EtOH, 12% PG, 82% phosphate buffer (5 mM), pH 7.0): Yes | Recrystallization upon storage ([10]; 25° C., pirfenidone 43.7 mg/mL, 8% EtOH, 16% PG, 76% phosphate buffer (5 mM), pH 7.0): Yes | Recrystallization upon storage ([10]; 25° C., pirfenidone […], 8% EtOH, 16% PG, 76% phosphate buffer (5 mM), pH 7.0): No | Recrystallization upon storage ([10]; −20° C., pirfenidone 23.0 mg/mL (85% saturation), 4% EtOH, 8% PG, 88% phosphate buffer (5 mM), pH 6.6, crystals re-dissolved at 25° C. without agitation): Yes^f | Recrystallization upon storage ([10]; −20° C., pirfenidone 29.5 mg/mL, 6% EtOH, 12% PG, 82% phosphate buffer (5 mM), pH 7.0, crystals re-dissolved at 25° C. without agitation): Yes^f | Recrystallization upon storage ([10]; −20° C., pirfenidone […], 8% EtOH, 16% PG, 76% phosphate buffer (5 mM), pH 7.0, crystals re-dissolved at 25° C. without agitation): Yes^f | T1/2 beta ([11]; lung tissue (derived solely from plasma T1/2), aerosol 110 mg RDD, 2009 fasted-state): 2.5 h | T1/2 beta ([11]; lung tissue (derived solely from plasma T1/2), aerosol 154 mg RDD, 2009 fasted-state): 2.5 h | T1/2 beta ([11]; lung tissue (derived solely from plasma T1/2), aerosol 185 mg RDD, 2009 fasted-state): 2.5 h | T1/2 beta [11, 12]: 2.5 h | T1/2 beta [11, 13]: 2.4 h | T1/2 beta ([11]; plasma, aerosol 110 mg RDD, 2009 fasted-state): 2.5 h | T1/2 beta ([11]; plasma, aerosol 154 mg RDD, 2009 fasted-state): 2.5 h | T1/2 beta ([11]; plasma, aerosol 185 mg RDD, 2009 fasted-state): 2.5 h | T1/2 beta [11, 14]: 2.5 h | T1/2 beta [11, 15]: 2.4 h
